In PubChem BioAssay (NCI):
Values joined by “and” are separate entries in the source; they are usually repeats but may differ in a detail not shown here. Equal entries are not always repeated.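 Briefly, cells in 96-well plates were exposed to five compound concentrations for 48 h, and endpoints were estimated by linear interpolation. GI50 = concentration required for 50% inhibition of growth. The concentration for full growth arrest is given as TGI.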

Key:
Assay in all cases: DTP human tumour cell line panel, 48 h
SF-268 CNS = test system: SF-268 CNS
UACC-257 melanoma = test system: UACC-257 melanoma
MCF7 breast = test system: MCF7 breast
NCI-H460 lung = test system: NCI-H460 lung
UACC-62 melanoma = test system: UACC-62 melanoma
MALME-3M melanoma = test system: MALME-3M melanoma
HL-60(TB) leukemia = test system: HL-60(TB) leukemia
MDA-MB-435 = test system: MDA-MB-435

Structure (SMILES) | GI50 (SF-268 CNS) | TGI (SF-268 CNS) | GI50 (UACC-257 melanoma) | TGI (UACC-257 melanoma) | GI50 (MCF7 breast) | TGI (MCF7 breast) | GI50 (NCI-H460 lung) | TGI (NCI-H460 lung) | GI50 (UACC-62 melanoma) [nM] | TGI (UACC-62 melanoma) [µM] | GI50 (MALME-3M melanoma) | TGI (MALME-3M melanoma) | GI50 (HL-60(TB) leukemia) | TGI (HL-60(TB) leukemia) | GI50 (MDA-MB-435) | TGI (MDA-MB-435)
Cc1ccc(C(=O)NCCCOc2ccc(N3C(N)=NC(N)=NC3(C)C)cc2Cl)cc1S(=O)(=O)F | 10.7 µM | > 100 µM | > 100000 nM | > 100 µM | 22400 nM | > 100 µM | 8440 nM | > 100 µM | 9390 | > 100 | > 100000 nM | > 100 µM | > 100000 nM | > 100 µM | 56700 nM | > 100 µM
NC(=S)N=Nc1c(O)[nH]c2c(Cl)cc(Cl)cc12 | – | – | – | 86.2 µM | – | > 100 µM | – | > 100 µM | – | 34.1 | – | 35.2 µM | – | 49.6 µM | – | 34 µM
COc1cccc(/C=C/c2nc3c(cnn3-c3ccccc3)c(=O)[nH]2)c1 | > 55.6 µM | > 100 µM | > 100000 nM | > 100 µM | 467 nM | > 100 µM | > 81800 nM | > 100 µM | > 100000 | > 100 | > 100000 nM | > 100 µM | > 62800 nM | > 100 µM | 447 nM | > 72.4 µM
COc1cc(Cl)cc(-c2nn(-c3cccc(NC(=O)Nc4cccc(C(F)(F)F)c4)c3)cc2-c2ccncc2)c1 | 2.56 µM | 17.1 µM | 1750 nM | 4.65 µM | 1480 nM | 7.57 µM | 840 nM | 4.66 µM | 1470 | 3.84 | 1790 nM | 5.91 µM | 1910 nM | 5.51 µM | 1740 nM | 3.82 µM
C=C1C(=O)OC2C1C(OC(=O)/C(C)=C/C)CC(O)(CCl)C1C(O)C=C(C)C21O (configuration not stated) | – | > 69.5 µM | – | 25.6 µM | – | 16.7 µM | – | 36.2 µM | – | 25.5 | – | 8.9 µM | – | 18 µM | – | > 62.1 µM
C=C1c2ccccc2C(=O)c2c1c1c(C(=O)OC)c(OC(=O)OCc3ccc([N+](=O)[O-])cc3)ccc1n2Cc1ccccc1 | 46.4 µM | > 100 µM | 29800 nM | > 100 µM | 13400 nM | 43.2 µM | 26800 nM | 88.6 µM | 10500 | 22.6 | 36000 nM | > 100 µM | – | – | 23500 nM | > 100 µM
COc1ccc(C(C)c2cc(OC)c(OC)c(OC)c2)cc1 (configuration not stated) | 0.621 µM | > 50 µM | 32300 nM | > 50 µM | – | – | 177 nM | > 50 µM | 270 | > 50 | – | – | 97.9 nM | 0.374 µM | – | –
CS(=O)(=O)Nc1cc(-c2ccc3ncnc(Nc4ccc(F)c(Cl)c4)c3c2)cnc1Cl | 0.51 µM and 0.675 µM | 8.05 µM and 20.1 µM | 503 nM and 706 nM | 7.55 µM and 10.4 µM | 216 nM and 227 nM | 11.4 µM and 11.8 µM | 753 nM and 980 nM | 11.5 µM and 12.9 µM | 255 | 1.56 | 191 nM and 179 nM | 1.13 µM and 1.56 µM | 514 nM and 302 nM | 14.7 µM and 3.35 µM | 605 nM and 537 nM | 7.03 µM and 4.96 µM
C[C@]12CC[C@@H]3c4ccc(O)cc4CC[C@H]3[C@@H]1CC[C@@H]2NS(=O)(=O)c1ccc(Br)cc1 | 3.43 µM | 13.4 µM | 2560 nM | 8.12 µM | 2260 nM | 4.64 µM | 2150 nM | 4.81 µM | 1760 | 3.68 | 1930 nM | 4.36 µM | 2770 nM | 8.5 µM | 1840 nM | 3.97 µM
COCCOCCOCc1n(Cc2ccc3ccccc3c2)c2ccccc2[n+]1Cc1ccc2ccccc2c1 | 0.442 µM | 1.68 µM | 289 nM | 0.988 µM | 325 nM | 1.45 µM | 483 nM | 1.85 µM | 329 | 1.45 | 351 nM | 1.38 µM | 115 nM | 0.38 µM | 282 nM | 1.23 µM
O=C(O)C1CC=CCC1C(=O)Nc1cccc(O)c1 (configuration not stated) | – | > 100 µM | – | > 100 µM | – | > 100 µM | – | > 100 µM | – | > 100 | – | > 100 µM | – | > 100 µM | – | > 100 µM
CNC(=O)c1cc(Oc2cccc3nc(NC(=O)Nc4cc(C(F)(F)F)cc(C(F)(F)F)c4)ccc23)ccn1 | 4.93 µM | 39.4 µM | 13200 nM | 44.1 µM | 7430 nM | 66.6 µM | 4160 nM | 36.6 µM | 3560 | 22.5 | 2620 nM | 12.9 µM | 23400 nM | 77.2 µM | 4700 nM | > 100 µM
O=C(NCCc1ccccc1)Nc1ccc2cc3ccc(NC(=O)NCCc4ccccc4)cc3nc2c1 | – | – | 1860 nM | 4.07 µM | 290 nM | 1.2 µM | 1270 nM | 3.57 µM | 1290 | 2.74 | 590 nM | 1.97 µM | 266 nM | 0.774 µM | 813 nM | 2.13 µM
[N-]=[N+]=NCCCn1c2c(c3ccc([N+](=O)[O-])cc3c1=O)C(=O)c1cc3c(cc1-2)OCO3 | – | – | 495 nM | 15.2 µM | 158 nM | 7.68 µM | < 10 nM | 0.501 µM | < 21.1 | 0.782 | – | – | < 28.1 nM | > 100 µM | < 42 nM | 1.49 µM
COc1ccc(/C(C)=N/NC(=O)CSc2nc3ccccc3c(=O)n2CCc2ccc(S(N)(=O)=O)cc2)cc1 | – | – | 2390 nM | 5.57 µM | 2950 nM | 11.2 µM | 2030 nM | 3.81 µM | 2200 | 4.93 | 1720 nM | 3.44 µM | 16600 nM | > 100 µM | – | –
CC(=O)Oc1ccc2c(c1)[C@@]1(C)CCCC(C)(C)[C@@H]1CC2 | 20.9 µM | 47.9 µM | 18200 nM | 43.6 µM | 34600 nM | > 100 µM | 27500 nM | 90.5 µM | 17600 | 32.8 | – | – | 34700 nM | > 100 µM | 16800 nM | 40 µM
NCCCCCNc1noc(Cc2c[nH]c3cc(Br)ccc23)n1 | 8.13 µM | 29.1 µM | 11900 nM | 25.5 µM | 3420 nM | 16.3 µM | 3120 nM | 12 µM | 551 | 10.1 | 2590 nM | 22.7 µM | 1660 nM | 9.15 µM | 327 nM | 2.33 µM
